Where a chain is given by its changes, count along the chain named. ≈ marks a conversion by molar mass, not a printed value. Calls of active or inactive are those of the source. The calls are words filed in the database; no cut-off is given here.
Columns and labels:
[1] = molecular target: Epidermal growth factor receptor (Homo sapiens, UniProt P00533)
[2] = molecular target: Epidermal growth factor receptor (Homo sapiens, UniProt P00533, EX19DEL)
[3] = molecular target: Epidermal growth factor receptor (Homo sapiens, UniProt P00533, L858R)
[4] = molecular target: T1, Mitogen-activated protein kinase 1 and 3 (ERK2 and ERK1) (Mus musculus) (UniProt P63085+Q63844); assay: Inhibition of ERK1/2 phosphorylation in mouse BaF3 cells harboring L858R mutant assessed as ERK1/2 phosphorylation at 10 to 1000 nM incubated for 8 hrs by Western blot analysis; assay type: cell-based; conditions: dose 10-1000 nM
[5] = molecular target: RAC-alpha serine/threonine-protein kinase (Mus musculus) (UniProt P31750); assay: Inhibition of AKT phosphorylation in mouse BaF3 cells harboring Del19 mutant assessed as […] phosphorylation at 10 to 1000 nM incubated for 8 hrs by Western blot analysis; assay type: cell-based; conditions: dose 10-1000 nM
[6] = molecular target: RAC-alpha serine/threonine-protein kinase (Mus musculus) (UniProt P31750); assay: Inhibition of AKT phosphorylation in mouse BaF3 cells harboring L858R mutant assessed as […] phosphorylation at 10 to 1000 nM incubated for 8 hrs by Western blot analysis; assay type: cell-based; conditions: dose 10-1000 nM
[7] = molecular target: T1, Mitogen-activated protein kinase 1 and 3 (ERK2 and ERK1) (Mus musculus); assay type: cell-based; conditions: BaF3, dose 10-1000 nM, time 8.0 hrs
[8] = molecular target: RAC-alpha serine/threonine-protein kinase (Mus musculus) (UniProt P31750); assay type: cell-based; conditions: BaF3, dose 10-1000 nM, time 8.0 hrs
[9] = molecular target: T1, Mitogen-activated protein kinase 1 and 3 (ERK2 and ERK1) (Mus musculus); assay: Inhibition of ERK1/2 phosphorylation in mouse BaF3 cells harboring Del19 mutant assessed as ERK1/2 phosphorylation at 10 to 1000 nM incubated for 8 hrs by Western blot analysis; assay type: cell-based; conditions: dose 10-1000 nM
[10] = test system: Epidermal growth factor receptor (Homo sapiens), P04626+P00533+Q15303+P21860 [L858R]; conditions: Mus musculus; BaF3; dose 10-1000 nM, time 8.0 hrs
[11] = molecular target: RAC-alpha serine/threonine-protein kinase (Mus musculus) (UniProt P31750); assay type: cell-based; conditions: BaF3, dose 10-1000 nM, time 8.0 hrs; remark: listed apart in the source
[12] = molecular target: T1, Mitogen-activated protein kinase 1 and 3 (ERK2 and ERK1) (Mus musculus); assay type: cell-based; conditions: BaF3, dose 10-1000 nM, time 8.0 hrs; remark: listed apart in the source
BaF3 [13] = assay type: cell-based; conditions: Mus musculus, dose 10-1000 nM, time 8.0 hrs
[14] = test system: T2, Receptor-type tyrosine-protein kinase FLT3 (Homo sapiens), P36888 [D835V]; assay: Inhibition of FLT3 D835V mutant (unknown origin) assessed as percent of control activity at 1 uM by radiometric protein kinase-reaction biology assay; values are per cent of control
T2 sequence (whole entry): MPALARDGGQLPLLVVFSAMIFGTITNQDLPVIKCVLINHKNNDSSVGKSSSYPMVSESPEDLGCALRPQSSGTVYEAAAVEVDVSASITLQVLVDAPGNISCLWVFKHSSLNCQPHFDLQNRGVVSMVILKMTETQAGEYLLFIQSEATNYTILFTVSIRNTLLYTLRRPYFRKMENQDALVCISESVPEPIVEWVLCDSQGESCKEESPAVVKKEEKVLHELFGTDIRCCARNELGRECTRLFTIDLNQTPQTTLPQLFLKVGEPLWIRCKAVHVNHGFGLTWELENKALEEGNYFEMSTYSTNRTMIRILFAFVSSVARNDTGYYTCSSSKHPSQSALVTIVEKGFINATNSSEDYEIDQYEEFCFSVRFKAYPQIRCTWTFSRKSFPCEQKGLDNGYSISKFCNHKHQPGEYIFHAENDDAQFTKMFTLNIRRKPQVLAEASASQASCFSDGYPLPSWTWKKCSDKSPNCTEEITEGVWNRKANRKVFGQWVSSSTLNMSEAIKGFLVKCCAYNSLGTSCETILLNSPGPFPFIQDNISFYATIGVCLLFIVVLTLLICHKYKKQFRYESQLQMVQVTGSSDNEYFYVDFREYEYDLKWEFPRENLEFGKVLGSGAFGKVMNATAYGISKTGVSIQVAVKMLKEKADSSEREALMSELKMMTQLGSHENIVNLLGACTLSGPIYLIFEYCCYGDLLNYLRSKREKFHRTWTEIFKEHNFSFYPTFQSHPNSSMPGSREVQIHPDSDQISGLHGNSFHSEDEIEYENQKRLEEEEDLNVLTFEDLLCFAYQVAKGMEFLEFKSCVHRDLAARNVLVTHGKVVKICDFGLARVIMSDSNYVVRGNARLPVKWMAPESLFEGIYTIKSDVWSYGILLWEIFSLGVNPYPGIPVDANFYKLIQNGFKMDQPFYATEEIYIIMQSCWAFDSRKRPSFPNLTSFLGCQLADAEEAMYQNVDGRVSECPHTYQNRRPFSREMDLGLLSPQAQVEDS

[15] = Solubility in neutral aqueous solutions after 24 hrs by HPLC analysis; assay type: physicochemical
BaF3 [16] = assay type: cell-based; conditions: Mus musculus, dose 10-1000 nM, time 8.0 hrs; remark: listed apart in the source
Homo sapiens = organism: Homo sapiens; assay: Inhibition of EGFR […] mutant (unknown origin) assessed as percent of control activity at 1 uM by radiometric protein kinase-reaction biology assay; values are per cent of control
[17] = Solubility in 100% DMSO after 24 hrs by HPLC analysis; assay type: physicochemical
[18] = test system: T3, Receptor-type tyrosine-protein kinase FLT3 (Homo sapiens), P36888 [D835Y]; assay: Inhibition of FLT3 D835Y mutant (unknown origin) assessed as percent of control activity at 1 uM by radiometric protein kinase-reaction biology assay; values are per cent of control
T3 sequence (whole entry): T2 sequence (whole entry) with V835Y

[19] = test system: Receptor-type tyrosine-protein kinase FLT3 (Homo sapiens), P36888 [UNDEFINED MUTATION]; assay: Inhibition of FLT3 ITD/D835V mutant (unknown origin) assessed as percent of control activity at 1 uM by radiometric protein kinase-reaction biology assay; values are per cent of control
[20] = Solubility in 10% DMSO after 24 hrs by HPLC analysis; assay type: physicochemical
BaF3 [21] = assay: Inhibition of EGFR Del19 mutant in mouse BaF3 cells assessed as protein phosphorylation at 10 to 1000 nM incubated for 8 hrs by Western blot analysis; assay type: cell-based; conditions: dose 10-1000 nM
[22] = molecular target: Epidermal growth factor receptor (Homo sapiens, UniProt P00533, L858R/T790M)
BaF3 [23] = assay: cells; assay type: functional, cell-based; conditions: Mus musculus, BaF3, 72 h
Description: Antiproliferative activity against mouse BaF3 cells expressing Del19 assessed as cell viability measured after 72 hrs hrs by CellTiter Glo assay

BaF3 [24] = assay: cells; assay type: functional, cell-based; conditions: Mus musculus, BaF3, 72 h; remark: listed apart in the source
BaF3 [25] = assay: cells; conditions: Mus musculus, BaF3, 72 h
BaF3 [26] = assay: cells; conditions: Mus musculus, BaF3, 72 h; remark: listed apart in the source
BaF3 [27] = assay: cells; conditions: Mus musculus, BaF3, 72 h; remark: listed apart in the source
BaF3 [28] = assay: cells; conditions: Mus musculus, BaF3, 72 h; remark: listed apart in the source
BaF3 [29] = assay: cells; conditions: Mus musculus, BaF3, 72 h; remark: listed apart in the source
BaF3 [30] = assay: cells; conditions: Mus musculus, BaF3, 72 h; remark: listed apart in the source
Description: Antiproliferative activity against mouse BaF3 cells expressing EGFR WT assessed as cell viability measured after 72 hrs hrs by CellTiter Glo assay

BaF3 [31] = assay: cells; assay type: functional, cell-based; conditions: Mus musculus, BaF3, 72 h; remark: listed apart in the source
BaF3 [32] = assay: cells; conditions: Mus musculus, BaF3, 72 h; remark: listed apart in the source
BaF3 [33] = assay: cells; conditions: Mus musculus, BaF3, 72 h; remark: listed apart in the source
BaF3 [34] = assay: cells; assay type: functional, cell-based; conditions: Mus musculus, BaF3, 72 h; remark: listed apart in the source

Chain of Epidermal growth factor receptor (Homo sapiens, UniProt P00533) (P00533 whole entry): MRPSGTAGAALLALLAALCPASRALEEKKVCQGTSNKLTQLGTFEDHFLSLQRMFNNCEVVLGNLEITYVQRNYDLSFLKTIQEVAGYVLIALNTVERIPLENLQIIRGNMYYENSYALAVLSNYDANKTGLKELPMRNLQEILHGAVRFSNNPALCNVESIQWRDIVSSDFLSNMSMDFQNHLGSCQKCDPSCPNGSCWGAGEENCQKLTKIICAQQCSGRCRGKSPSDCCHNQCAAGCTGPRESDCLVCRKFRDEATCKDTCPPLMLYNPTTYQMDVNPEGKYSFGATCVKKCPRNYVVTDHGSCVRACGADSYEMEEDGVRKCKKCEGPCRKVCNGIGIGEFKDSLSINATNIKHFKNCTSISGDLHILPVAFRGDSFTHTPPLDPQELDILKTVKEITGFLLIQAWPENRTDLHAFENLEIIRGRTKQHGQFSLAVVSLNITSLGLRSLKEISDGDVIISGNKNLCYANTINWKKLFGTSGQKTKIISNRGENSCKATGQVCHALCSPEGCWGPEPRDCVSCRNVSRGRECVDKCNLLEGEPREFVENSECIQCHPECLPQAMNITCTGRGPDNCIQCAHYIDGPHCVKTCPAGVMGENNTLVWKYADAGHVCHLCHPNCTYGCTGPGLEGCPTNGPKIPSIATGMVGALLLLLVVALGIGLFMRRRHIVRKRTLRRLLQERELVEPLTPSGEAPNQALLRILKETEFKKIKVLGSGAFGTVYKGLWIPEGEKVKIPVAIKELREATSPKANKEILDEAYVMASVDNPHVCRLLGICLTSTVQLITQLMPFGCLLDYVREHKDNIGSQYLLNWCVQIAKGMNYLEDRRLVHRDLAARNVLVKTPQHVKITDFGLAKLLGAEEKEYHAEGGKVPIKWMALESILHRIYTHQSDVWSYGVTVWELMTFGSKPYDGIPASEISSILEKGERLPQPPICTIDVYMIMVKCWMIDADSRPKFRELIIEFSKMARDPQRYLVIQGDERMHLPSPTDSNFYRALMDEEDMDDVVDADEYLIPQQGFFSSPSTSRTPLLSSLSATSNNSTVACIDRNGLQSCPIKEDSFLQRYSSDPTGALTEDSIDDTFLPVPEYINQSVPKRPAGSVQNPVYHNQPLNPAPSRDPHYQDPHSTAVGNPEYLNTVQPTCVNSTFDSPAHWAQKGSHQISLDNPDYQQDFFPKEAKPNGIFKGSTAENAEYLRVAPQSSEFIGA
Chain of Epidermal growth factor receptor (Homo sapiens, UniProt P00533, EX19DEL) (P00533 whole entry, looked up, stated change not applied): as the sequence (P00533 whole entry) above
Chain of Epidermal growth factor receptor (Homo sapiens, UniProt P00533, L858R) (P00533 25-1210 L858R limits assumed): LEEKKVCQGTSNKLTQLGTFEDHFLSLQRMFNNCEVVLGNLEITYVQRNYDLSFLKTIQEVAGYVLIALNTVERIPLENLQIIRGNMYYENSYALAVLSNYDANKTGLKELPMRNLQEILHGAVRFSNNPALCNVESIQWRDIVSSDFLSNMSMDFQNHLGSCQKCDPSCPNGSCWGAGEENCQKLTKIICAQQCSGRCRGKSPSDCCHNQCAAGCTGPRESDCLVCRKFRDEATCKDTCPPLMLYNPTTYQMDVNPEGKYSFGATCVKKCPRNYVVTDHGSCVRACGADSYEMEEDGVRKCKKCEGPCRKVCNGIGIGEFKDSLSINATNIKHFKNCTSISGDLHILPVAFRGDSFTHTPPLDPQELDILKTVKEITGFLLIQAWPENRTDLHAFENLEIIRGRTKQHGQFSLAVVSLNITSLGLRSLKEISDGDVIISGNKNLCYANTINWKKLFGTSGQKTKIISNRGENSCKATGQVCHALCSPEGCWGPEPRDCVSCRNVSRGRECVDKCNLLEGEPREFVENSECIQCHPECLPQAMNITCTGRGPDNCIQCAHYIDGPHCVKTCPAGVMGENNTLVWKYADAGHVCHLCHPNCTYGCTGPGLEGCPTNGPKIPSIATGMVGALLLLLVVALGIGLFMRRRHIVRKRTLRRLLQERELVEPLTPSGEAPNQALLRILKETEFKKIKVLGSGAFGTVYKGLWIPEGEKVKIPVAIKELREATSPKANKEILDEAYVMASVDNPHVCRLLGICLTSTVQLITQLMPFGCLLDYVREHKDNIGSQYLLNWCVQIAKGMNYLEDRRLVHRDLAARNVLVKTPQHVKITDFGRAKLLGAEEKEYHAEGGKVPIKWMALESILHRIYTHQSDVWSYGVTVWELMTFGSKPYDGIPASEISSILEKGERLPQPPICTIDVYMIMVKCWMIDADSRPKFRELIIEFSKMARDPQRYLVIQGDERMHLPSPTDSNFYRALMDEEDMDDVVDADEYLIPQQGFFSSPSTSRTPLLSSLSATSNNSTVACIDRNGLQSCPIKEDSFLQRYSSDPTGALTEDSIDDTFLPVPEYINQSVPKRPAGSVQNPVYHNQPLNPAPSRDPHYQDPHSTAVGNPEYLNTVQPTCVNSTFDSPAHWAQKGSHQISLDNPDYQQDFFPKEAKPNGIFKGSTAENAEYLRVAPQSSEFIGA
T1 sequence (P63085 whole entry, looked up): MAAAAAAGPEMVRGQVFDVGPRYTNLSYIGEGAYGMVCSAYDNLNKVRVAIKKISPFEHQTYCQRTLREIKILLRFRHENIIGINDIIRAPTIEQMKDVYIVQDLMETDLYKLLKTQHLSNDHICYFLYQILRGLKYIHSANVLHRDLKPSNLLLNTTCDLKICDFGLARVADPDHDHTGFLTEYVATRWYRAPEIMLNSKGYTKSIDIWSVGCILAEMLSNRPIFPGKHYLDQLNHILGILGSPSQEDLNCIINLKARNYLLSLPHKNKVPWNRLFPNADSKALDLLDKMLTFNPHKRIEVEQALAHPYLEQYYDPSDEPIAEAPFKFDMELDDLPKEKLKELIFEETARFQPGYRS
T1 sequence (Q63844 whole entry, looked up): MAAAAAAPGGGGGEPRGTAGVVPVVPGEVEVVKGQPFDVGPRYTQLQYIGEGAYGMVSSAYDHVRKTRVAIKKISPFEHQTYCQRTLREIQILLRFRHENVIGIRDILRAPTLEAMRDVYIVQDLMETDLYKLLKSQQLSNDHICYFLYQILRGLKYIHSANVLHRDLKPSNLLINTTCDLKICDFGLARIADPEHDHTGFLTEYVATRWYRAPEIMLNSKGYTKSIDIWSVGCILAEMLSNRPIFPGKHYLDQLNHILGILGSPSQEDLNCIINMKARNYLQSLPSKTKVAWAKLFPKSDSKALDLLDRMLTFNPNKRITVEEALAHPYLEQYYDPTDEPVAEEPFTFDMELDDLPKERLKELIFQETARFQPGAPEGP
Chain of RAC-alpha serine/threonine-protein kinase (Mus musculus) (P31750 whole entry): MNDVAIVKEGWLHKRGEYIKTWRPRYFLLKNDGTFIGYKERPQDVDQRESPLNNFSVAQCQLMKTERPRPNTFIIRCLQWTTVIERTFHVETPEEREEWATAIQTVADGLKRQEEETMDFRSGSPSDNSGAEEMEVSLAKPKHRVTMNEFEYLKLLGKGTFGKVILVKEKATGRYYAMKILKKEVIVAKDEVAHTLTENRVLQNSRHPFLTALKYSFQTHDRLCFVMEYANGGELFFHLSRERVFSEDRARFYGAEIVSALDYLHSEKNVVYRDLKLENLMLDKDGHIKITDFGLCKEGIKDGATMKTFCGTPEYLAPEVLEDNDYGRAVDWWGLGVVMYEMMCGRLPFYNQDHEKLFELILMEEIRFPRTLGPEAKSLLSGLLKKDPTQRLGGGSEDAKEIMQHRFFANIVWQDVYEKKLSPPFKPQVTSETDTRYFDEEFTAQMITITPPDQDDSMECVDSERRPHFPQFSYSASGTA

Structure (SMILES)	IC50 [1] [nM]	IC50 [2] [nM]	IC50 [3] [nM]	further results
COc1cc2ncnc3c2cc1OCCOCCOCCOc1cccc(Cl)c1N3	> 100000	42.9	32.6	
COc1cc2ncnc3c2cc1OCCCCCCOc1cccc(Cl)c1N3	> 100000	56.8	275	
COc1cc2ncnc3c2cc1OCCOCCOCCOc1cc(F)c(Cl)cc1N3	> 100000	1.3	2.8	inhibition [4]: Active; inhibition [5]: Active; inhibition [6]: Active; inhibition [7]: Active; inhibition [8]: Active; inhibition [9]: Active; inhibition [10]: Active; inhibition [11]: Active; inhibition [12]: Active
COc1cc2ncnc3c2cc1OCCOCCOc1cc(F)c(Cl)cc1N3				inhibition (BaF3 [13]): Active; residual activity [14]: 5%; solubility at 24 h [15]: 0.131 µg/mL (≈ 0.323 µM); inhibition (BaF3 [16]): Active; residual activity (Homo sapiens): 26%; solubility [17]: 2592 µg/mL (≈ 6390 µM); residual activity [18]: 25%; residual activity [19]: 33%; solubility at 24 h [20]: 0.283 µg/mL (≈ 0.697 µM); inhibition (BaF3 [21]): Active
COc1cc2ncnc3c2cc1OCCOCCOc1cc(Cl)ccc1N3	> 100000			
COc1cc2ncnc3c2cc1OCCOCCOc1cc(ccc1Cl)N3		493	1120	
COc1cc2ncnc3c2cc1OCCCCCCOc1cc(Cl)ccc1N3	> 100000	63500	> 100000	
COc1cc2ncnc3c2cc1OCCOCCOc1ccccc1N3	> 100000	155	685	IC50 [22]: 1680 nM
Fc1cc2c(cc1Cl)Nc1ncnc3ccc(cc13)OCCOCCO2		1030		IC50 (BaF3 [23]): 3100 nM; IC50 (BaF3 [24]): 2760 nM; IC50 (BaF3 [25]): 5360 nM
COc1cc2ncnc3c2cc1OCCOCCOc1ccc(Cl)cc1N3	> 100000	24.9	128	
COc1cc2ncnc3c2cc1OCCOCCOc1c(Cl)cccc1N3		509		
COc1cc2ncnc3c2cc1OCCOCCOc1cccc(c1)N3		33900		
COc1cc2ncnc3c2cc1OCCCCCCOc1ccc(Cl)cc1N3	> 100000	19.6	739	
COc1cc2ncnc3c2cc1OCCOCCOc1ccc(Cl)c(c1)N3	> 100000	70400	19900	
COc1cc2ncnc3c2cc1OCCOCCOCCOc1ccc(Cl)cc1N3	> 100000	0.3	0.7	inhibition [4]: Active; inhibition [5]: Active; inhibition [6]: Active; inhibition [7]: Active; inhibition [8]: Active; inhibition [9]: Active; inhibition [10]: Active; inhibition [11]: Active; inhibition [12]: Active
COc1cc2ncnc3c2cc1OCCOCCOc1cc(Cl)cc(c1)N3		6300		
COc1cc2ncnc3c2cc1OCCCCCCOc1c(Cl)cccc1N3		3030	> 100000	
COc1cc2ncnc3c2cc1OCCCCCCOc1cc(F)c(Cl)cc1N3	> 100000	235	655	
C=CC(=O)Nc1cc(Nc2ncc(C(=O)OC(C)C)c(-c3cn(C)c4ccccc34)n2)c(OC)cc1N(C)CCN(C)C [MOBOCERTINIB]				IC50 (BaF3 [23]): 5 nM; IC50 (BaF3 [26]): 8.9 nM; IC50 (BaF3 [24]): 1060 nM; IC50 (BaF3 [27]): 3810 nM; IC50 (BaF3 [25]): 1.9 nM; IC50 (BaF3 [28]): 27.1 nM; IC50 (BaF3 [29]): 2170 nM; IC50 (BaF3 [30]): 8.3 nM; IC50 (BaF3 [31]): 10.1 nM; IC50 (BaF3 [32]): 1130 nM; IC50 (BaF3 [33]): 47.6 nM; IC50 (BaF3 [34]): 9 nM
COc1cc2ncnc3c2cc1OCCCCCCOc1ccccc1N3		491		
COc1cc2ncnc3c2cc1OCCOCCOCCOc1ccccc1N3	> 100000	1870	87.6	
COc1cc2ncnc3c2cc1OCCOCCOCCOc1cc(Cl)ccc1N3	> 100000	16.2	38.3	

Source: ChEMBL document CHEMBL5150044, “Macrocyclization of Quinazoline-Based EGFR Inhibitors Leads to Exclusive Mutant Selectivity for EGFR L858R and Del19” (J Med Chem, 2022)
